The target in assay [1] is T1, α1β3γ2 GABAA/BzR (Homo sapiens, UniProt P14867+P18507). On the set-up: expressed in transfected cells; host or cells: LTK cells (given for XLi-093 only). The settings on record: read-out: Affinity Ki α1, cited from earlier work.
The target of assay [2] is T2, α3β3γ2 GABAA/BzR (Homo sapiens, UniProt P18507+P34903). Also noted: expressed in transfected cells; host or cells: LTK cells (given for XLi-093 only). The settings on record: read-out: Affinity Ki α3, cited from earlier work.
The target in assay [3] is T3, α2β3γ2 GABAA/BzR (Homo sapiens, UniProt P18507+P47869). Also noted: expressed in transfected cells; host or cells: LTK cells (given for XLi-093 only). The settings on record: read-out: Affinity Ki α2, cited from earlier work.
Assay [4] deals with T4, α5β3γ2 GABAA/BzR (Homo sapiens, UniProt P18507+P31644). Also noted: expressed in transfected cells; host or cells: LTK cells (given for XLi-093 only). The settings on record: read-out: Affinity Ki α5, cited from earlier work.
Assay [5] addresses T4, α5β3γ2 GABAA/BzR. Put plainly: Competition binding to HEK cell membranes, α5β3γ2. On the set-up: expressed in transfected cells.
Assay [6] deals with T5, α4β3γ2 GABAA/BzR (Homo sapiens, UniProt P18507+P48169).
T5 construct: expressed in transfected cells; host or cells: LTK cells (given for XLi-093 only)
Put plainly: biochemical. The format is binding.

The target in assay [7] is T2, α3β3γ2 GABAA/BzR. Put plainly: Competition binding to HEK cell membranes, α3β3γ2. Also noted: expressed in transfected cells.
The target of assay [8] is T1, α1β3γ2 GABAA/BzR. Put plainly: Competition binding to HEK cell membranes, α1β3γ2. Also noted: expressed in transfected cells.
For assay [9], the target named is T3, α2β3γ2 GABAA/BzR. Put plainly: Competition binding to HEK cell membranes, α2β3γ2. Also noted: expressed in transfected cells.
The target in assay [10] is T5, α4β3γ2 GABAA/BzR. The settings on record: read-out: Affinity Ki α4, cited from earlier work.
Assay [11] addresses T6, α6β3γ2 GABAA/BzR (Homo sapiens, UniProt P18507+Q16445). Put plainly: Competition binding to HEK cell membranes, α6β3γ2. On the set-up: expressed in transfected cells. The settings on record: Ki α6.
In assay [12] the target is T6, α6β3γ2 GABAA/BzR. Also noted: expressed in transfected cells; host or cells: LTK cells (given for XLi-093 only). The settings on record: read-out: Affinity Ki α6, cited from earlier work.
The subject of assay [13] is dopamine neurons in the VTA. The settings on record: rat, in vivo; cited from earlier work.
Assay [14] relates to alcohol preferring and HAD rats. The settings on record: cited from earlier work.
Assay [15] has as its system Bz BS of GABA(A) receptors. The settings on record: cited from earlier work.
In assay [16] the target is T7, α6β2γ2 GABAA receptor (Homo sapiens, UniProt P18507+Q16445).
T7 construct: expressed in transfected cells; host or cells: HEK cells
Put plainly: Radioligand binding (McKernan and Atack), α6β2γ2. The settings on record: Table 3; αxβ2γ2; means of two determinations; read-out: Binding affinity α6. The method, then:
(§1) Transfected HEK cells (beta2 gamma2 and desired alpha subtype) were harvested into phosphate-buffered saline, centrifuged at 3,000 g, and stored at −70°C until required. On the day of the assay, pellets were thawed and resuspended in sufficient volume of 50 mM Tris/acetate (pH 7.4 at 4°C) to give a total binding of approximately 1500–2000 dpm. […] Total assay volume was 0.5 mL and assays were carried out in 96-well plates and incubation time started by the addition of 0.1 mL of resuspended cell membranes. Following incubation for 1 hour at 4°C, assays were terminated by filtration through GF/B filters, washed with 10 mL ice cold buffer, dried, and then counted using a liquid scintillation counter. […] We have previously reported the synthesis of the following.

For assay [17], the target named is T8, α3β2γ2 GABAA receptor (Homo sapiens, UniProt P18507+P34903).
T8 construct: expressed in transfected cells; host or cells: HEK cells
Kind of assay: Radioligand binding (McKernan and Atack), α3β2γ2. The settings on record: Table 3; αxβ2γ2; means of two determinations; read-out: Binding affinity α3. The method, then: as §1

The target in assay [18] is T9, α2β2γ2 GABAA receptor (Homo sapiens, UniProt P18507+P47869).
T9 construct: expressed in transfected cells; host or cells: HEK cells
Kind of assay: Radioligand binding (McKernan and Atack), α2β2γ2. The settings on record: Table 3; αxβ2γ2; means of two determinations; read-out: Binding affinity α2. The method, then:
as §1

The target in assay [19] is T10, α1β2γ2 GABAA receptor (Homo sapiens, UniProt P14867+P18507).
T10 construct: expressed in transfected cells; host or cells: HEK cells
Put plainly: Radioligand binding (McKernan and Atack), α1β2γ2. The settings on record: Table 3; αxβ2γ2; means of two determinations; read-out: Binding affinity α1. Here is the method:
as §1

The target of assay [20] is T11, α5β2γ2 GABAA receptor (Homo sapiens, UniProt P18507+P31644).
T11 construct: expressed in transfected cells; host or cells: HEK cells
Kind of assay: Radioligand binding (McKernan and Atack), α5β2γ2. The settings on record: Table 3; αxβ2γ2; means of two determinations; read-out: Binding affinity α5. The method, then:
as §1

Assay [21] concerns the target T12, α4β2γ2 GABAA receptor (Homo sapiens, UniProt P18507+P48169).
T12 construct: expressed in transfected cells; host or cells: HEK cells
Kind of assay: Radioligand binding (McKernan and Atack), α4β2γ2. The settings on record: Table 3; αxβ2γ2; means of two determinations; read-out: Binding affinity α4. Here is the method:
as §1

“And” between values parts separate entries of the source, which are not always exact repeats. Equal values may be shown once. Read-outs that look alike come from different tables or passages of the source. Some results are limits rather than exact numbers.

Regarding `CCOC(=O)c1cc2c(cn1)[nH]c1ccc(C#C[Si](C)(C)C)cc12` [WY-B-99-1], the Ki is 4.4 nM in assay [1] (Figure 33, αxβ3γ2); 5.58 nM in assay [2] (Figure 33, αxβ3γ2); 4.5 nM in assay [3] (Figure 33, αxβ3γ2); 47 nM in assay [4] (Figure 33, αxβ3γ2); 47 nM in assay [5] (Ki α5); 47 nM in assay [5] (read-out: Ki α5). Further, the Ki was determined as 2000 nM in assay [6]; 5.58 nM in assay [7] (Ki α3); 5.58 nM in assay [7] (read-out: Ki α3); 4.4 nM in assay [8] (Ki α1); 4.4 nM in [8] (read-out: Ki α1); 4.5 nM in assay [9] (Ki α2). The Ki in [9] (read-out: Ki α2) is 4.5 nM; in [10] (Figure 33, αxβ3γ2), 2000 nM; in assay [11], 2000 nM; in assay [12] (Figure 33, αxβ3γ2) it was 2000 nM.

Consider `NC1=N[C@H](O)[C@H]2[C@H]3O[C@]4(O)O[C@@H]([C@@H](O)[C@@]2(N1)[C@@H]4O)[C@]3(O)CO` [TTX, Tetrodotoxin, reference compound], for which the “cells/track after infusion in the ventral HPC of haloperidol-treated rats” value in assay [13] was “reversed the haloperidol-induced reduction in cells/track in SAL, but not MAM”.

As to `CC(C)(C)OC(=O)c1cc2c(cn1)[nH]c1ccccc12` [BCCt], the “rate at which rats self-administrated alcohol” value in assay [14] (alcohol preferring and HAD rats) is on record as “reduce the rate”. Further, the sucrose self-administration entry in assay [14] is listed as “little or no effect”. Moreover, the Ki in assay [5] (Ki α5) was 69.3 nM; in [5] (read-out: Ki α5), 111 nM; in assay [7] (Ki α3) it was 0.035 nM; in assay [8] (Ki α1), 0.03 nM; in [9] (Ki α2) it was 0.0419 nM; in assay [10] (Figure 33, αxβ3γ2) it was 1000 nM. The Ki in [11] was 5000 nM; in assay [12] (Figure 33, αxβ3γ2) it was greater than 5000 nM. In addition, the modulation entry in assay [15] (Supplement Table 1) was “antagonist”. Besides, in [15], the “pharmacological properties compared with classical benzodiazepine receptor antagonists” value is recorded as “near GABA neutral antagonists”.

`C#Cc1ccc2c(c1)C(c1ccccc1)=N[C@H](C)c1c(C(=O)OCC)ncn1-2` [SH-053-R-CH3, (15)]: the Ki in [16] is greater than 5000 nM; in assay [17], 1180 nM; in assay [18] it was 2380 nM; in assay [19], 2030 nM; in assay [20], 949 nM; in [21] it was greater than 5000 nM.

On to `CC(C)(C)OC(=O)c1cc2c(cn1)[nH]c1ccc(C#Cc3ccc4[nH]c5cnc(C(=O)OC(C)(C)C)cc5c4c3)cc12` [42(WY-S-2)], for which the Ki in assay [1] is 30 nM; in assay [2], 100 nM; in [3], 124 nM; in assay [4], greater than 300 nM; in assay [8] (binding to α1 subtypes), 30 nM; in assay [10] it was greater than 300 nM. The Ki in assay [12] is greater than 4000 nM.

In the case of `C#Cc1ccc2c(c1)C(c1ccccc1)=N[C@@H](C)c1c(C(=O)OCC)ncn1-2` [SH-053-S-CH3, (16)], the Ki in assay [16] is greater than 5000 nM; in [17], 1250 nM; in assay [18] it was 1260 nM; in [19], 1670 nM; in [20] it was 206 nM; in assay [21], greater than 5000 nM.

`CC(C)(C)OC(=O)c1cc2c(cn1)[nH]c1ccc(C#C[Si](C)(C)C)cc12` [WY-B-14 (WYS7)]: the Ki in assay [1] (Figure 33, αxβ3γ2) was 6.8 nM; in assay [2] (Figure 33, αxβ3γ2), 36 nM; in [3] (Figure 33, αxβ3γ2) it was 30 nM; in assay [4] (Figure 33, αxβ3γ2) it was 108 nM; in assay [6], 2000 nM; in assay [7] (Ki α3) it was 36 nM and 245 nM. Further, the Ki is 6.84 nM and 8.5 nM in assay [8] (Ki α1); 30 nM and 165 nM in [9] (Ki α2); 2000 nM in assay [10] (Figure 33, αxβ3γ2); 1000 nM and 5000 nM in [11]; 1000 nM in assay [12] (Figure 33, αxβ3γ2).

The values above are taken from article PMC4657098, “A Review of the Updated Pharmacophore for the Alpha 5 GABA(A) Benzodiazepine Receptor Model” (International Journal of Medicinal Chemistry, 2015).
